Tests used:
[1] = target: RON (human) (Homo sapiens, UniProt Q04912); assay: RON (human) AlphaScreen kinase assay, Km of ATP; assay type: biochemical; details: AlphaScreen, Km of ATP; read-out: RON biochemical IC50
How it was run: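 Reaction was started with enzyme and run 30 min at RT. PT66 donor/acceptor beads in an EDTA-containing Tris pH 7.5 buffer were then added, and the signal was read after 1 h.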

[2] = target: MET (human) (Homo sapiens, UniProt P08581); assay: MET (human) AlphaScreen kinase assay, Km of ATP; assay type: biochemical; details: AlphaScreen, Km of ATP; read-out: Met biochemical IC50
Sequence of MET (human) (P08581 25-1390): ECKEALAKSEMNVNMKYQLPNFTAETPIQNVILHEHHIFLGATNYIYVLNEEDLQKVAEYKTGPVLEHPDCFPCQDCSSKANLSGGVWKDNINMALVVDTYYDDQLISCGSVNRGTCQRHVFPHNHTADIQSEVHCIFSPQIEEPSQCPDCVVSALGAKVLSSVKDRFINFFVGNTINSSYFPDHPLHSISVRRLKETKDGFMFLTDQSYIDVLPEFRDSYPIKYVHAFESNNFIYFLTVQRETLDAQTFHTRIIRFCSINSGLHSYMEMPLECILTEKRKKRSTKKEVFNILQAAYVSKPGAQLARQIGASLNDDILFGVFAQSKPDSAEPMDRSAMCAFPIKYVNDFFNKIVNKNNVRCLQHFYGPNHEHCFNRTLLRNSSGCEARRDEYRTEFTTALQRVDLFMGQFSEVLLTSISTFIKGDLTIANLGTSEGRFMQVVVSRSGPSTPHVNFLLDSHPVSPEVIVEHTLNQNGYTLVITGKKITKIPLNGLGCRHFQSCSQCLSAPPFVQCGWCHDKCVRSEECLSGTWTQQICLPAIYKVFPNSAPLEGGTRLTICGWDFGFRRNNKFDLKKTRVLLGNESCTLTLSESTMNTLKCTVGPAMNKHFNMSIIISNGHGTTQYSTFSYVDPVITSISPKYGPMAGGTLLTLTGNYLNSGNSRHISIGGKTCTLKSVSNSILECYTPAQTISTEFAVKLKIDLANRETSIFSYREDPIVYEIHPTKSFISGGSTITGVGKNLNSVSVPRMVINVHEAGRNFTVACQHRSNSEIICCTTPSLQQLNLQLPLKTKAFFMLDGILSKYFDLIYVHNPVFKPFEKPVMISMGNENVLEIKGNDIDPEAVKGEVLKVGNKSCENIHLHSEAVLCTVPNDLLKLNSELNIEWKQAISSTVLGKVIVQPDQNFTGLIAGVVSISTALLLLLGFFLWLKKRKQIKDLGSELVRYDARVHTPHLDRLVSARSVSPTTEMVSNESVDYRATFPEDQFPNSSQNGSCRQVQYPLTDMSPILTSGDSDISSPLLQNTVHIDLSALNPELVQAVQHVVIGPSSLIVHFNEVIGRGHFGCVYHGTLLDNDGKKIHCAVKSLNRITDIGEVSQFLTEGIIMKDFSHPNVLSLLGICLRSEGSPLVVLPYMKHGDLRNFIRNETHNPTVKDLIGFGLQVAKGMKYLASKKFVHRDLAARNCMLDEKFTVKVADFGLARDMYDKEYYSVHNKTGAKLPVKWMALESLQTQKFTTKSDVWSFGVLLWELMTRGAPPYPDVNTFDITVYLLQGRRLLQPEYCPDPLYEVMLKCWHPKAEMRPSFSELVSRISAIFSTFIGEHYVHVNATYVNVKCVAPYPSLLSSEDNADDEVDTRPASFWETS
How it was run: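 Human MET at lot-optimised concentration in 50 mM Tris pH 7.4 buffer with 1 mM DTT, compound at 1% DMSO final; enzyme starts the reaction, 60 min at RT.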

Sequence of RON (human) (Q04912 25-1400): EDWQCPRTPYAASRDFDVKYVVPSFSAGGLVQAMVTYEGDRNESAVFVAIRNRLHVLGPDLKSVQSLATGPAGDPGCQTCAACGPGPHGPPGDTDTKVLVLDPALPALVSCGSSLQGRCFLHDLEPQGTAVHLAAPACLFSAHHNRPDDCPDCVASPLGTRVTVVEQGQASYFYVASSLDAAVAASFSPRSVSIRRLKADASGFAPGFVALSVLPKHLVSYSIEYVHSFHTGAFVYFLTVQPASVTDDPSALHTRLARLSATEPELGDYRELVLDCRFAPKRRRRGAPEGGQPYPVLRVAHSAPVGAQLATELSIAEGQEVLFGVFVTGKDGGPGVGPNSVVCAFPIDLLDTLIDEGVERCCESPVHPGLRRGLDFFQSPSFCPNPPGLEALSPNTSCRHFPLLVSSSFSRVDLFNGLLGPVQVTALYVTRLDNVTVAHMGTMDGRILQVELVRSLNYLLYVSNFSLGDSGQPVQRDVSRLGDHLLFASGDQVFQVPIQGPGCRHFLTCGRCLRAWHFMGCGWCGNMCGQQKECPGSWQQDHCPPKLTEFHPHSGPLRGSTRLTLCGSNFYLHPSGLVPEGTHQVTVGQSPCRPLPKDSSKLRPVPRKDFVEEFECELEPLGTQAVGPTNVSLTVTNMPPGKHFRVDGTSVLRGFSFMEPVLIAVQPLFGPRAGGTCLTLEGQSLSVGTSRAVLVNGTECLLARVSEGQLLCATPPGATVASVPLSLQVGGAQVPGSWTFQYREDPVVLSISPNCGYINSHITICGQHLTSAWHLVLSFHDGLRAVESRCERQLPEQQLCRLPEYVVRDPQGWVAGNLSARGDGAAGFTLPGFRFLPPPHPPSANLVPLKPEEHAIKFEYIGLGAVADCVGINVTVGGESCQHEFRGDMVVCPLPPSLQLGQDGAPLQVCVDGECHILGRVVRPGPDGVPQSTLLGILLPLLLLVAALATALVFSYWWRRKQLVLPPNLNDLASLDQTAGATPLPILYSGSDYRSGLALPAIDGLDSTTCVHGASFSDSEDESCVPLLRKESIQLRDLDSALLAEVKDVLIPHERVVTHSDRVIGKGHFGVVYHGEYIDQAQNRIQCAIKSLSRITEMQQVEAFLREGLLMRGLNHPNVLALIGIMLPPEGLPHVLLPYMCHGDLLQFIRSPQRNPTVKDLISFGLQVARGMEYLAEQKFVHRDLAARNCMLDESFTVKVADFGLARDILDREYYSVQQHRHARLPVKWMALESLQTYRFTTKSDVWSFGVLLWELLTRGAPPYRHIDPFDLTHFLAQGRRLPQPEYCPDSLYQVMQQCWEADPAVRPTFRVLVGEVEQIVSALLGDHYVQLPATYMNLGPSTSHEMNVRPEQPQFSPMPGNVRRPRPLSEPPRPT

Row | IC50 [1] | IC50 [2] | SMILES
1 | 500 to 5000 nM | 500 to 5000 nM | C[C@H](Oc1c(N)ncc2c(-c3cnn(C4CCNCC4)c3)coc12)c1ccccn1 [Example 395, 3-(1-Piperidin-4-yl-1H-pyrazol-4-yl)-7-((S)-1-pyridin-2-yl-ethoxy)furo[3,2-c]pyridin-6-ylamine]
2 | 500 to 5000 nM | 500 to 5000 nM | CC(C)OC(=O)N1CC=C(c2coc3c(O[C@H](C)c4c(Cl)ccc(F)c4Cl)c(N)ncc23)CC1 [Example 53, 4-{6-Amino-7-[(R)-1-(2,6-dichloro-3-fluorophenyl)-ethoxy]-furo[3,2-c]pyridin-3-yl}-3,6-dihydro-2H-pyridine-1-carboxylic acid isopropyl ester]
3 | > 20000 nM | 5000 to 20000 nM | C[C@@H](Oc1c(N)ncc2ccoc12)c1nnc2ccc(-c3ccccc3)nn12 [Example 471, 7-[(1R)-1-(6-phenyl[1,2,4]triazolo[4,3-b]pyridazin-3-yl)ethoxy]furo[3,2-c]pyridin-6-amine]
4 | < 500 nM | < 500 nM | C[C@@H](Oc1c(N)ncc2c(-c3cnn(C4CCNCC4)c3)c(C#CCN)oc12)c1c(Cl)ccc(F)c1Cl [Example 173, 2-(3-Aminoprop-1-ynyl)-7-[(R)-1-(2,6-dichloro-3-fluorophenyl)ethoxy]-3-(1-piperidin-4-yl-1H-pyrazol-4-yl)-furo[3,2-c]pyridin-6-ylamine]
5 | 500 to 5000 nM | < 500 nM | C[C@@H](Oc1c(N)ncc2c(-c3cccc(C(=O)N4CCN(C)CC4)c3)coc12)c1c(Cl)ccc(F)c1Cl [Example 94, (3-{6-Amino-7-[(R)-1-(2,6-dichloro-3-fluorophenyl)ethoxy]furo[3,2-c]pyridin-3-yl}phenyl)(4-methylpiperazin-1-yl)methanone]
6 | 500 to 5000 nM | 500 to 5000 nM | CC(Oc1c(N)ncc2c(-c3cnn(C4CCNCC4)c3)coc12)c1cc(F)cc(F)c1 (stereo not shown) [Example 384, 7-[1-(3,5-Difluorophenyl)ethoxy]-3-(1-piperidin-4-yl-1H-pyrazol-4-yl)furo[3,2-c]pyridin-6-ylamine]
7 | > 20000 nM | 500 to 5000 nM | Nc1ncc2ccoc2c1OCc1nnc2ccc(-c3ccccc3)nn12 [Example 473, 7-[(6-phenyl[1,2,4]triazolo[4,3-b]pyridazin-3-yl)methoxy]furo[3,2-c]pyridin-6-amine]
8 | 500 to 5000 nM | 500 to 5000 nM | C[C@@H](Oc1c(N)ncc2c(-c3cnc(N4CCN(C)CC4)nc3)coc12)c1c(Cl)ccc(F)c1Cl [Example 123, 7-[(R)-1-(2,6-Dichloro-3-fluorophenyl)ethoxy]-3-[2-(4-methylpiperazin-1-yl)pyrimidin-5-yl]furo[3,2-c]pyridin-6-ylamine]
9 | 500 to 5000 nM | 500 to 5000 nM | CC(C)NC(=O)c1coc2c(O[C@H](C)c3c(Cl)ccc(F)c3Cl)c(N)ncc12 [Example 183, 6-Amino-7-[(R)-1-(2,6-dichloro-3-fluorophenyl)ethoxy]furo[3,2-c]pyridine-3-carboxylic acid isopropylamide]
10 | < 500 nM | < 500 nM | C[C@@H](Oc1c(N)ncc2c(-c3ccc(N4CCNCC4)nc3)coc12)c1c(Cl)ccc(F)c1Cl [Example 130, 7-[(R)-(2,6-Dichloro-3-fluorophenyl)ethoxy]-3-(6-piperazin-1-yl-pyridin-3-yl)furo[3,2-c]pyridin-6-ylamine]
11 | 5000 to 20000 nM | 500 to 5000 nM | COc1ncc(-c2coc3c(O[C@H](C)c4c(Cl)ccc(F)c4Cl)c(N)ncc23)cn1 [Example 93, 7-[(R)-1-(2,6-Dichloro-3-fluorophenyl)ethoxy]-3-(2-methoxypyrimidin-5-yl)furo[3,2-c]pyridin-6-ylamine]
12 | 500 to 5000 nM | 500 to 5000 nM | CC(Oc1c(N)ncc2c(-c3cnn(C4CCNCC4)c3)coc12)c1ccccc1C(F)(F)F (stereo not shown) [Example 346, 3-(1-Piperidin-4-yl-1H-pyrazol-4-yl)-7-[1-(2-trifluoromethyl-phenyl)ethoxy]furo[3,2-c]pyridin-6-ylamine]
13 | < 500 nM | < 500 nM | C[C@@H](Oc1c(N)ncc2c(C3=CCN(C(=O)CN)CC3)coc12)c1c(Cl)ccc(F)c1Cl [Example 253, 2-Amino-1-[4-{6-amino-7-[(1R)-1-(2,6-dichloro-3-fluorophenyl)ethoxy]furo[3,2-c]pyridin-3-yl}-3,6-dihydropyridin-1(2H)-yl]ethanone]
14 | 500 to 5000 nM | < 500 nM | CC(Cc1ccc(Cl)cc1)Oc1c(N)ncc2c(-c3cnn(C4CCNCC4)c3)coc12 (stereo not shown) [Example 370, 7-[2-(4-Chlorophenyl)-1-methylethoxy]-3-(1-piperidin-4-yl-1H-pyrazol-4-yl)furo[3,2-c]pyridin-6-ylamine]
15 | 500 to 5000 nM | 500 to 5000 nM | C[C@@H](Oc1c(N)ncc2c(CO)coc12)c1c(Cl)ccc(F)c1Cl [Example 194, {6-Amino-7-[(R)-1-(2,6-dichloro-3-fluorophenyl)ethoxy]furo[3,2-c]pyridin-3-yl}-methanol]
16 | < 500 nM | < 500 nM | CC(Oc1c(N)ncc2c(-c3cnn(C4CCNCC4)c3)coc12)c1cc(F)cc(Br)c1 (stereo not shown) [Example 434, 7-[1-(3-Bromo-5-fluorophenyl)ethoxy]-3-(1-piperidin-4-yl-1H-pyrazol-4-yl)furo[3,2-c]pyridin-6-ylamine]
17 | 500 to 5000 nM | < 500 nM | C[C@@H](Oc1c(N)ncc2c(C3=CCN(C(=O)[C@@H](N)c4ccccc4)CC3)coc12)c1c(Cl)ccc(F)c1Cl [Example 261, (2S)-2-Amino-1-[4-{6-amino-7-[(1R)-1-(2,6-dichloro-3-fluoro-phenyl)ethoxy]furo[3,2-c]pyridin-3-yl}-3,6-dihydropyridin-1(2H)-yl]-2-phenylethanone]
18 | 5000 to 20000 nM | 500 to 5000 nM | Cn1cc(-c2ccc3nnc(COc4c(N)ncc5ccoc45)n3n2)cn1 [Example 472, 7-{[6-(1-methyl-1H-pyrazol-4-yl) [1,2,4]triazolo[4,3-b]pyridazin-3-yl]methoxy}furo[3,2-c]pyridin-6-amine]
19 | 500 to 5000 nM | < 500 nM | C[C@@H](Oc1c(N)ncc2c(C3=CCN(C(=O)C(O)C(F)(F)F)CC3)coc12)c1c(Cl)ccc(F)c1Cl (stereo partly drawn) [Example 270, 1-[4-{6-Amino-7-[(1R)-1-(2,6-dichloro-3-fluorophenyl)ethoxy]furo[3,2-c]pyridin-3-yl}-3,6-dihydropyridin-1(2H)-yl]-3,3,3-trifluoro-2-hydroxypropan-1-one]
20 | < 500 nM | < 500 nM | C[C@@H](Oc1c(N)ncc2c(C3=CCN(C(=O)[C@H](N)CO)CC3)coc12)c1c(Cl)ccc(F)c1Cl [Example 255, (2R)-2-Amino-1-[4-{6-amino-7-[(1R)-1-(2,6-dichloro-3-fluoro-phenyl)ethoxy]furo[3,2-c]pyridin-3-yl}-3,6-dihydropyridin-1(2H)-yl]-3-hydroxypropan-1-one]
21 | < 500 nM | < 500 nM | C[C@@H](Oc1c(N)ncc2c(-c3csc(CN)c3)coc12)c1c(Cl)ccc(F)c1Cl [Example 310, 3-(5-Aminomethylthiophen-3-yl)-7-[(R)-1-(2,6-dichloro-3-fluoro-phenyl)ethoxy]furo[3,2-c]pyridin-6-ylamine]
22 | 500 to 5000 nM | < 500 nM | CC(=O)N1CCN(c2ccc(-c3coc4c(O[C@H](C)c5c(Cl)ccc(F)c5Cl)c(N)ncc34)cn2)CC1 [Example 281, 1-[4-(5-{6-Amino-7-[(R)-1-(2,6-dichloro-3-fluorophenyl)ethoxy]furo[3,2-c]pyridin-3-yl}-pyridin-2-yl)-piperazin-1-yl]ethanone]
23 | 500 to 5000 nM | 500 to 5000 nM | C[C@@H](Oc1c(N)ncc2c(C3=CCN(/C(N)=N\C#N)CC3)coc12)c1c(Cl)ccc(F)c1Cl [Example 197, 4-{6-Amino-7-[(R)-1-(2,6-dichloro-3-fluorophenyl)ethoxy]-furo[3,2-c]pyridin-3-yl}-N-cyano-3,6-dihydro-2H-pyridine-1-carboxamidine]
24 | 500 to 5000 nM | 500 to 5000 nM | Nc1ncc2c(-c3cnn(C4CCNCC4)c3)coc2c1OCCc1ccccc1 [Example 416, 7-Phenethyloxy-3-(1-piperidin-4-yl-1H-pyrazol-4-yl)furo[3,2-c]pyridin-6-ylamine]
25 | 500 to 5000 nM | 500 to 5000 nM | CCOC(=O)N1CC=C(c2coc3c(O[C@H](C)c4c(Cl)ccc(F)c4Cl)c(N)ncc23)CC1 [Example 51, 4-{6-Amino-7-[(R)-1-(2,6-dichloro-3-fluorophenyl)-ethoxy]-furo[3,2-c]pyridin-3-yl}-3,6-dihydro-2H-pyridine-1-carboxylic acid ethyl ester]
26 | 500 to 5000 nM | < 500 nM | CC(/C=C/c1c(Cl)ccc(F)c1Cl)Oc1c(N)ncc2c(-c3cnn(C4CCNCC4)c3)coc12 (stereo not shown) [Example 373, 7-[(E)-3-(2,6-Dichloro-3-fluorophenyl)-1-methylallyloxy]-3-(1-piperidin-4-yl-1H-pyrazol-4-yl)furo[3,2-c]pyridin-6-ylamine]
27 | 500 to 5000 nM | 500 to 5000 nM | COCCCNC(=O)c1coc2c(O[C@H](C)c3c(Cl)ccc(F)c3Cl)c(N)ncc12 [Example 191, 6-Amino-7-[(R)-1-(2,6-dichloro-3-fluorophenyl)ethoxy]furo[3,2-c]pyridine-3-carboxylic acid (3-methoxypropyl)amide]
28 | 500 to 5000 nM | < 500 nM | CC(Oc1c(N)ncc2c(-c3cnn(C4CCNCC4)c3)coc12)c1cccc(C(F)(F)F)c1 (stereo not shown) [Example 347, 3-(1-Piperidin-4-yl-1H-pyrazol-4-yl)-7-[1-(3-trifluoromethyl-phenyl)ethoxy]furo[3,2-c]pyridin-6-ylamine]

Row | SMILES | IC50 [1] | IC50 [2]
29 | C[C@@H](Oc1c(N)ncc2c(C3=CCN(C4CCC4)CC3)coc12)c1c(Cl)ccc(F)c1Cl [Example 44, 3-(1-Cyclobutyl-1,2,3,6-tetrahydropyridin-4-yl)-7-[(R)-1-(2,6-dichloro-3-fluorophenyl)-ethoxy]-furo[3,2-c]pyridin-6-ylamine] | < 500 nM | < 500 nM
